{
  "source": "patent US20250051275A1",
  "about": "“PYRROLE DERIVATIVE OR PHARMACEUTICALLY OR SITOLOGICALLY ACCEPTABLE SALTS THEREOF, AND COMPOSITION FOR PREVENTION, AMELIORATION OR TREATMENT OF GASTROINTESTINAL DISORDERS COMPRISING SAME AS ACTIVE INGREDIENT” (HANA PHARM CO., LTD., priority 2021, published 2025)",
  "key": {"[1]": {"test_system": "human gastric cancer cells (AGS Cells)", "test": "MTS assay, inhibition of proliferation of human gastric cancer cells (AGS Cells)", "type": "cell-based", "details": "Homo sapiens, 48 hours", "protocol": "To examine the effect of inhibiting the proliferation of the compounds indicated in the examples of the present invention on human gastric cancer cells (AGS Cells), MTS Assay experiments were in vitro performed. AGS cells were cultured in a 5% CO2 incubator at 37° C. by using RPMI 1640 medium containing 1% penicillin-streptomycin and 10% fetal bovine serum. The cells in culture were separated with using 0.25% Trypsin-0.02% EDTA every 3 to 4 days and subcultured.\nFor the experiment, the cultured cells were treated with 0.25% Trypsin-0.02% EDTA solution, the suspended cells were centrifuged at 1,200 rpm for 5 minutes, the supernatant was discarded, a culture medium was added thereto, and a cell suspension was made with the culture medium. Using a hemocytometer, 10,000 cells per well were dispensed into 96-well plates and cultured. After 24 hours, when the cells attached to the plate, the culture medium was discarded, and the cells were treated with new culture media prepared by concentration (test concentrations: 500 μm, 250 μm, 125 μm, 63 μm, 31 μm, 16 μm, 8 μm, 4 μm, and 2 μm) and cultured in a CO2 incubator for 48 hours. After treating with an MTS solution, the cells were incubated in a CO2 incubator for 1 hour, and the absorbance was measured at 490 nm by using a microplate reader device. The cell proliferation inhibition rate was expressed as IC50, which is 50% inhibition of cell proliferation, using GraphPad Prism 5.\nIn Table 2 below, the IC50 value is indicated as “+++” for 0 to 50 μM, “++” for 51 to 100 μM, and “+” for 101 to 400 μM."}, "[2]": {"test": "Pharmacokinetic profile in beagles, single oral dose", "type": "in vivo, beagle dogs", "details": "male, dog, plasma, beagle, mean n=3", "protocol": "A total of 18 male beagle dogs (Marshall Beagle, Beijing) with an average weight of 9 to 11 kg were obtained, acclimatized, and distributed into a total of 6 groups, 3 dogs per test group. During the entire experiment, all beagle dogs were supplied with standardized solid food and water. The breeding room was kept under controlled and monitored conditions, while maintaining a temperature of 18° C. to 26° C., a humidity of 40% to 70%, and a light-dark cycle of 12 hours-12 hours.\nThe test group consisted of beagle dogs that were orally administered the vehicle as the vehicle group, beagle dogs that were orally administered control drug 1 (vonoprazan) as the comparison group, and administration group was beagle dogs orally administered with Example 7.\nBlood samples were obtained from peripheral veins at 30 minutes, 1 hour, 2.5 hours, 4.5 hours, 7.5 hours, 25.5 hours, and 49.5 hours after drug administration, respectively. Blood samples were centrifuged (2 to […], 3,200 g, 10 minutes) to obtain plasma. The amount of the administered compound into the plasma samples was quantified by using LC-MS/MS. Pharmacokinetic parameters were obtained by using a non-compartmental model in Phoenix WinNonlin 6.3 software. ‘AUC0-last’ indicates the area under the time curve, ‘Cmax’ indicates the highest plasma concentration, ‘ Tmax’ indicates the time to reach the highest plasma concentration, and ‘T1/2’ indicates the half-life."}, "[3]": {"test": "Oral bioavailability in beagle dogs", "type": "in vivo", "details": "dog, plasma; for AUC(0-t) / half-life / Cmax / Tmax: mean n=3; for bioavailability: po, read-out: BA (bioavailability)", "protocol": "To evaluate oral bioavailability, Example 7 was administered intravenously or orally to beagle dogs.\nFor the intravenous administration group, blood samples were obtained from peripheral veins 1 minute, 5 minutes, 15 minutes, 30 minutes, 1 hour, 2 hours, 4 hours, 8 hours, and 24 hours after drug administration. For the oral administration group, blood samples were obtained from peripheral veins 15 minutes, 30 minutes, 1 hour, 2 hours, 4 hours, 6 hours, 8 hours, 12 hours, and 24 hours after drug administration. Blood samples collected at different times were treated with EDTA and centrifuged (2 to 8° C., 3,200 g, 10 minutes) to separate plasma.\nThe amount of administered compound into the plasma sample was quantified by using LC-MS/MS. Pharmacokinetic parameters were obtained by using a non-compartmental model in Phoenix WinNonlin 6.3 software.\n‘AUC0-last’ indicates the area under the time curve, ‘Cmax’ indicates the highest plasma concentration, ‘Tmax’ indicates the time to reach the highest plasma concentration, ‘T1/2’ indicates the half-life, and ‘BA’ indicates the bioavailability."}},
  "note": "pIC50: −log10 of the molar value. Where two headings read alike, the source gives them in different places.",
  "data": [
    {"smiles": "[2H]C([2H])([2H])NCc1cc(-c2ccccc2F)n(S(=O)(=O)c2ccc(F)cc2)c1", "note": "[Example 7, N-((5-(2-fluorophenyl)-1-((4-fluorophenyl)sulfonyl)-1H-pyrrol-3-yl)methyl)methan-d3-amine]", "values": [
      {"measurement": "pIC50", "setting": "[1]; read-out: Proliferation inhibitory effect of gastric cancer cells (IC50)", "value": 4.45},
      {"measurement": "IC50", "setting": "[1]; read-out: Proliferation inhibitory effect of gastric cancer cells (IC50, μM), class symbol", "value": "< 50", "unit": "µM"},
      {"measurement": "AUC(0-t)", "setting": "[2]; oral single dose 0.1 mg/kg", "value": 99.4, "unit": "ng·h/mL"},
      {"measurement": "Cmax", "setting": "[2]; oral single dose 0.1 mg/kg", "value": 32.3, "unit": "ng/mL"},
      {"measurement": "Tmax", "setting": "[2]; oral single dose 0.1 mg/kg", "value": 0.833, "unit": "h"},
      {"measurement": "half-life", "setting": "[2]; oral single dose 0.1 mg/kg", "value": 1.67, "unit": "h"},
      {"measurement": "AUC(0-t)", "setting": "[2]; oral single dose 0.3 mg/kg", "value": 808, "unit": "ng·h/mL"},
      {"measurement": "Cmax", "setting": "[2]; oral single dose 0.3 mg/kg", "value": 165, "unit": "ng/mL"},
      {"measurement": "Tmax", "setting": "[2]; oral single dose 0.3 mg/kg", "value": 1, "unit": "h"},
      {"measurement": "half-life", "setting": "[2]; oral single dose 0.3 mg/kg", "value": 2.93, "unit": "h"},
      {"measurement": "AUC(0-t)", "setting": "[2]; oral single dose 1 mg/kg", "value": 2890, "unit": "ng·h/mL"},
      {"measurement": "Cmax", "setting": "[2]; oral single dose 1 mg/kg", "value": 397, "unit": "ng/mL"},
      {"measurement": "Tmax", "setting": "[2]; oral single dose 1 mg/kg", "value": 1, "unit": "h"},
      {"measurement": "half-life", "setting": "[2]; oral single dose 1 mg/kg", "value": 3.03, "unit": "h"},
      {"measurement": "AUC(0-t)", "setting": "[2]; oral single dose 3 mg/kg", "value": 19200, "unit": "ng·h/mL"},
      {"measurement": "Cmax", "setting": "[2]; oral single dose 3 mg/kg", "value": 1430, "unit": "ng/mL"},
      {"measurement": "Tmax", "setting": "[2]; oral single dose 3 mg/kg", "value": 2.17, "unit": "h"},
      {"measurement": "half-life", "setting": "[2]; oral single dose 3 mg/kg", "value": 4.29, "unit": "h"},
      {"measurement": "AUC(0-t)", "setting": "[3]; intravenous 0.2 mg/kg", "value": 423, "unit": "ng·h/mL"},
      {"measurement": "half-life", "setting": "[3]; intravenous 0.2 mg/kg", "value": 3.57, "unit": "h"},
      {"measurement": "AUC(0-t)", "setting": "[3]; oral 2 mg/kg (1 mg/ml)", "value": 6940, "unit": "ng·h/mL"},
      {"measurement": "Cmax", "setting": "[3]; oral 2 mg/kg (1 mg/ml)", "value": 632, "unit": "ng/mL"},
      {"measurement": "Tmax", "setting": "[3]; oral 2 mg/kg (1 mg/ml)", "value": 1.53, "unit": "h"},
      {"measurement": "half-life", "setting": "[3]; oral 2 mg/kg (1 mg/ml)", "value": 5.55, "unit": "h"},
      {"measurement": "AUC(0-t)", "setting": "[3]; oral 6 mg/kg (3 mg/ml)", "value": 15100, "unit": "ng·h/mL"},
      {"measurement": "Cmax", "setting": "[3]; oral 6 mg/kg (3 mg/ml)", "value": 1120, "unit": "ng/mL"},
      {"measurement": "Tmax", "setting": "[3]; oral 6 mg/kg (3 mg/ml)", "value": 3.67, "unit": "h"},
      {"measurement": "half-life", "setting": "[3]; oral 6 mg/kg (3 mg/ml)", "value": 7.49, "unit": "h"},
      {"measurement": "AUC(0-t)", "setting": "[3]; oral 20 mg/kg (10 mg/ml)", "value": 49300, "unit": "ng·h/mL"},
      {"measurement": "Cmax", "setting": "[3]; oral 20 mg/kg (10 mg/ml)", "value": 3350, "unit": "ng/mL"},
      {"measurement": "Tmax", "setting": "[3]; oral 20 mg/kg (10 mg/ml)", "value": 3.33, "unit": "h"},
      {"measurement": "half-life", "setting": "[3]; oral 20 mg/kg (10 mg/ml)", "value": 18.3, "unit": "h"},
      {"measurement": "bioavailability", "setting": "[3]; 2 mg/kg, oral 2 mg/kg (1 mg/ml)", "value": "≥ 100", "unit": "%"},
      {"measurement": "bioavailability", "setting": "[3]; 6 mg/kg, oral 6 mg/kg (3 mg/ml)", "value": "≥ 100", "unit": "%"},
      {"measurement": "bioavailability", "setting": "[3]; 20 mg/kg, oral 20 mg/kg (10 mg/ml)", "value": "≥ 100", "unit": "%"}
    ]}
  ]
}
